Experimental data published in PubChem BioAssay (NCI).
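Five compound concentrations were applied to cells in 96-well plates for 48 hours; endpoints were derived by simple linear interpolation of the resulting dose-response curve. The concentration for 50% growth inhibition is given as GI50. The concentration for full growth arrest is given as TGI.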

Key:
Assay in all cases: NCI-60 cell line screen, 48 h
SK-MEL-2 melanoma = system: SK-MEL-2 melanoma
SW-620 colon = system: SW-620 colon
SK-MEL-5 melanoma = system: SK-MEL-5 melanoma
OVCAR-3 ovarian = system: OVCAR-3 ovarian
MCF7 breast = system: MCF7 breast
EKVX NSCLC = system: EKVX NSCLC
CAKI-1 renal = system: CAKI-1 renal
MALME-3M melanoma = system: MALME-3M melanoma
SF-268 CNS = system: SF-268 CNS
OVCAR-8 ovarian = system: OVCAR-8 ovarian
CCRF-CEM leukemia = system: CCRF-CEM leukemia
SF-295 CNS = system: SF-295 CNS
SNB-75 CNS = system: SNB-75 CNS
HOP-92 NSCLC = system: HOP-92 NSCLC
SF-539 CNS = system: SF-539 CNS
K-562 leukemia = system: K-562 leukemia
RXF 393 renal = system: RXF 393 renal
786-0 renal = system: 786-0 renal
IGROV1 ovarian = system: IGROV1 ovarian
UACC-257 melanoma = system: UACC-257 melanoma
HS 578T breast = system: HS 578T breast
MDA-MB-435 = system: MDA-MB-435
HCT-15 colon = system: HCT-15 colon
OVCAR-5 ovarian = system: OVCAR-5 ovarian
LOX IMVI melanoma = system: LOX IMVI melanoma
HCC-2998 colon = system: HCC-2998 colon
NCI-H23 lung = system: NCI-H23 lung
MDA-MB-231 breast = system: MDA-MB-231 breast
M14 melanoma = system: M14 melanoma
SN12C renal = system: SN12C renal
KM12 colon = system: KM12 colon
UACC-62 melanoma = system: UACC-62 melanoma
RPMI-8226 leukemia = system: RPMI-8226 leukemia
SR leukemia = system: SR leukemia
TK-10 renal = system: TK-10 renal
A498 renal = system: A498 renal
NCI-H460 lung = system: NCI-H460 lung
PC-3 prostate = system: PC-3 prostate
NCI/ADR-RES ovarian = system: NCI/ADR-RES ovarian
OVCAR-4 ovarian = system: OVCAR-4 ovarian
BT-549 breast = system: BT-549 breast
SK-MEL-28 melanoma = system: SK-MEL-28 melanoma
ACHN renal = system: ACHN renal
UO-31 renal = system: UO-31 renal
SNB-19 CNS = system: SNB-19 CNS
DU-145 prostate = system: DU-145 prostate
NCI-H226 lung = system: NCI-H226 lung
NCI-H522 lung = system: NCI-H522 lung
A549 NSCLC = system: A549 NSCLC
T-47D breast = system: T-47D breast
SK-OV-3 ovarian = system: SK-OV-3 ovarian
HT29 colon = system: HT29 colon
U251 CNS = system: U251 CNS
COLO 205 colon = system: COLO 205 colon
HOP-62 NSCLC = system: HOP-62 NSCLC
HCT-116 colon = system: HCT-116 colon

Work on `Cc1cccc(Oc2ccc(Nc3ncnc4ccc(NC(=O)CN5CCN(C)CC5)cc34)cc2Cl)c1` yielded a GI50 (SK-MEL-2 melanoma) of 1870 nM, a TGI (SK-MEL-2 melanoma) of 3640 nM and a GI50 (SW-620 colon) of 1690 nM. The TGI (SW-620 colon) was 3270 nM, the GI50 (SK-MEL-5 melanoma) was 1640 nM and the TGI (SK-MEL-5 melanoma) was 3030 nM. The GI50 (OVCAR-3 ovarian) was 1420 nM, the TGI (OVCAR-3 ovarian) was 2990 nM and the GI50 (MCF7 breast) was 1510 nM. It also gave a TGI (MCF7 breast) of 2990 nM, a GI50 (EKVX NSCLC) of 1120 nM and a TGI (EKVX NSCLC) of 2640 nM. The GI50 (CAKI-1 renal) was 1190 nM, the TGI (CAKI-1 renal) was 2660 nM and the GI50 (MALME-3M melanoma) was 1590 nM. It also gave a TGI (MALME-3M melanoma) of 3160 nM, a GI50 (SF-268 CNS) of 1460 nM and a TGI (SF-268 CNS) of 3160 nM. The GI50 (OVCAR-8 ovarian) was 2110 nM, the TGI (OVCAR-8 ovarian) was 5680 nM and the GI50 (CCRF-CEM leukemia) was 2060 nM. The TGI (CCRF-CEM leukemia) was 5210 nM, the GI50 (SF-295 CNS) was 1830 nM and the TGI (SF-295 CNS) was 3390 nM. It also gave a GI50 (SNB-75 CNS) of 1440 nM, a TGI (SNB-75 CNS) of 2810 nM and a GI50 (HOP-92 NSCLC) of 1170 nM. It also gave a TGI (HOP-92 NSCLC) of 2590 nM, a GI50 (SF-539 CNS) of 1730 nM and a TGI (SF-539 CNS) of 3190 nM. It also gave a GI50 (K-562 leukemia) of 1610 nM, a TGI (K-562 leukemia) of 4330 nM and a GI50 (RXF 393 renal) of 1610 nM. For the same compound, the TGI (RXF 393 renal) was 3090 nM, the GI50 (786-0 renal) was 1590 nM and the TGI (786-0 renal) was 2990 nM. It also gave a GI50 (IGROV1 ovarian) of 673 nM, a TGI (IGROV1 ovarian) of 2380 nM and a GI50 (UACC-257 melanoma) of 1900 nM. For the same compound, the TGI (UACC-257 melanoma) was 3850 nM, the GI50 (HS 578T breast) was 1770 nM and the TGI (HS 578T breast) was 4280 nM. The GI50 (MDA-MB-435) was 1590 nM, the TGI (MDA-MB-435) was 2990 nM and the GI50 (HCT-15 colon) was 1350 nM. It also gave a TGI (HCT-15 colon) of 2760 nM, a GI50 (OVCAR-5 ovarian) of 1660 nM and a TGI (OVCAR-5 ovarian) of 3200 nM. For the same compound, the GI50 (LOX IMVI melanoma) was 1700 nM, the TGI (LOX IMVI melanoma) was 3180 nM and the GI50 (HCC-2998 colon) was 1580 nM. The TGI (HCC-2998 colon) was 3040 nM, the GI50 (NCI-H23 lung) was 1740 nM and the TGI (NCI-H23 lung) was 3490 nM. The GI50 (MDA-MB-231 breast) was 1660 nM, the TGI (MDA-MB-231 breast) was 3170 nM and the GI50 (M14 melanoma) was 1720 nM. The TGI (M14 melanoma) was 3380 nM, the GI50 (SN12C renal) was 1720 nM and the TGI (SN12C renal) was 3440 nM. The GI50 (KM12 colon) was 1740 nM, the TGI (KM12 colon) was 3240 nM and the GI50 (UACC-62 melanoma) was 1840 nM. It also gave a TGI (UACC-62 melanoma) of 3560 nM, a GI50 (RPMI-8226 leukemia) of 1760 nM and a TGI (RPMI-8226 leukemia) of 4390 nM. It also gave a GI50 (SR leukemia) of 1720 nM, a TGI (SR leukemia) of 5320 nM and a GI50 (TK-10 renal) of 701 nM. For the same compound, the TGI (TK-10 renal) was 2240 nM, the GI50 (A498 renal) was 1060 nM and the TGI (A498 renal) was 2280 nM. The GI50 (NCI-H460 lung) was 1750 nM, the TGI (NCI-H460 lung) was 3280 nM and the GI50 (PC-3 prostate) was 1780 nM. The TGI (PC-3 prostate) was 3520 nM, the GI50 (NCI/ADR-RES ovarian) was 1730 nM and the TGI (NCI/ADR-RES ovarian) was 4240 nM. For the same compound, the GI50 (OVCAR-4 ovarian) was 1720 nM, the TGI (OVCAR-4 ovarian) was 4300 nM and the GI50 (BT-549 breast) was 1450 nM. It also gave a TGI (BT-549 breast) of 2810 nM, a GI50 (SK-MEL-28 melanoma) of 1740 nM and a TGI (SK-MEL-28 melanoma) of 3200 nM. The GI50 (ACHN renal) was 655 nM, the TGI (ACHN renal) was 1960 nM and the GI50 (UO-31 renal) was 1100 nM. The TGI (UO-31 renal) was 2350 nM, the GI50 (SNB-19 CNS) was 1950 nM and the TGI (SNB-19 CNS) was 4790 nM. It also gave a GI50 (DU-145 prostate) of 1180 nM and a TGI (DU-145 prostate) of 2570 nM.

With `CO[C@@]12C[C@@H](CNC(=O)c3cc(Br)c[nH]3)O[C@@H]1NC(=O)N2` the TGI (NCI-H226 lung) was greater than 100000 nM, the TGI (SK-MEL-2 melanoma) was greater than 100000 nM and the TGI (SW-620 colon) was greater than 100000 nM. For the same compound, the TGI (SK-MEL-5 melanoma) was greater than 100000 nM, the TGI (OVCAR-3 ovarian) was greater than 100000 nM and the TGI (MCF7 breast) was greater than 100000 nM. The TGI (EKVX NSCLC) was greater than 100000 nM, the TGI (CAKI-1 renal) was greater than 100000 nM and the TGI (MALME-3M melanoma) was greater than 100000 nM. The TGI (SF-268 CNS) was greater than 100000 nM, the TGI (NCI-H522 lung) was greater than 100000 nM and the TGI (OVCAR-8 ovarian) was greater than 100000 nM. It also gave a TGI (CCRF-CEM leukemia) greater than 100000 nM, a TGI (SF-295 CNS) greater than 100000 nM and a TGI (SNB-75 CNS) greater than 100000 nM. For the same compound, the TGI (SF-539 CNS) was greater than 100000 nM, the TGI (RXF 393 renal) was greater than 100000 nM and the TGI (786-0 renal) was greater than 100000 nM. The TGI (IGROV1 ovarian) was greater than 100000 nM, the TGI (UACC-257 melanoma) was greater than 100000 nM and the TGI (HS 578T breast) was greater than 100000 nM. The TGI (MDA-MB-435) was greater than 100000 nM, the TGI (HCT-15 colon) was greater than 100000 nM and the TGI (OVCAR-5 ovarian) was greater than 100000 nM. The TGI (LOX IMVI melanoma) was greater than 100000 nM, the TGI (NCI-H23 lung) was greater than 100000 nM and the TGI (MDA-MB-231 breast) was greater than 100000 nM. It also gave a TGI (M14 melanoma) greater than 100000 nM, a TGI (SN12C renal) greater than 100000 nM and a TGI (KM12 colon) greater than 100000 nM. The TGI (A549 NSCLC) was greater than 100000 nM, the TGI (UACC-62 melanoma) was greater than 100000 nM and the TGI (T-47D breast) was greater than 100000 nM. It also gave a TGI (RPMI-8226 leukemia) greater than 100000 nM, a TGI (TK-10 renal) greater than 100000 nM and a TGI (A498 renal) greater than 100000 nM. It also gave a TGI (NCI-H460 lung) greater than 100000 nM, a TGI (SK-OV-3 ovarian) greater than 100000 nM and a TGI (PC-3 prostate) greater than 100000 nM. For the same compound, the TGI (HT29 colon) was greater than 100000 nM, the TGI (NCI/ADR-RES ovarian) was greater than 100000 nM and the TGI (OVCAR-4 ovarian) was greater than 100000 nM. The TGI (BT-549 breast) was greater than 100000 nM, the TGI (U251 CNS) was greater than 100000 nM and the TGI (COLO 205 colon) was greater than 100000 nM. It also gave a TGI (SK-MEL-28 melanoma) greater than 100000 nM, a TGI (ACHN renal) greater than 100000 nM and a TGI (HOP-62 NSCLC) greater than 100000 nM. For the same compound, the TGI (UO-31 renal) was greater than 100000 nM, the TGI (SNB-19 CNS) was greater than 100000 nM and the TGI (DU-145 prostate) was greater than 100000 nM. For the same compound, the TGI (HCT-116 colon) was greater than 100000 nM.
